Results from patent US4374988A, “4-Heteroarylimidazo-[1,5-A]pyrimidines” (American Cyanamid Company, priority 1981, dated 1983).

Legend:
rats [1] = experiment: protection from pentylenetetrazole-induced clonic seizures in rats; format: in vivo, rat
Procedure: The anti-anxiety properties of the novel compounds of the invention have been established in a test which indicates anxiolytic activity by the measure of protection from convulsions resulting from the administration of pentylenetetrazole (sold as METROZOL, Reg. T.M.). Single or graded dosage levels of the test compounds were administered orally or intraperitoneally (in a 2% starch vehicle, containing 5% v/v polyethylene glycol and one to two drops of polysorbate 80) to groups of at least 4 rats. Thirty or 60 minutes after administration, the rats were treated intravenously with pentylenetetrazole at a dosage of 23 mg/kg. of body weight. This dose is estimated to cause clonic seizures in 99% of unprotected rats. A test compound is considered active if it protects 50% or more of the rats from clonic seizures. It has been reported (R. T. Hill and D. H. Tedeschi, "Animal Testing and Screening Procedures in Evaluating Psychotropic Drugs" in "An Introduction to Psychopharmacology", Eds. R. R. Rech and K. E. Moore, Raven Press, New York, pages 237-288 (1971)) that there is a high degree of correlation between antagonism of pentylenetetrazole seizures in rats and anti-anxiety effects in higher mammals.

rats [2] = experiment: thirsty rat conflict test (non-conditioned passive avoidance); format: in vivo, rat (Wistar strain)
From the text: Another test which has been employed to assess anti-anxiety effects is a non-conditioned passive avoidance procedure described by J. R. Vogel, B. Beer and D. E. Clody, "A Simple and Reliable Conflict Procedure for Testing Anti-Anxiety Agents", Psychopharmacologia, Vol. 21, pages 1-7 (1971). A conflict situation is induced in rats by a modification of this method. The test is referred to herein as the "thirsty rat conflict" test.
Groups of 8 naive, Wistar strain rats, weighing 200-240 g. each, were deprived of water for 48 hours. The test compounds were administered in single or graded, oral or intraperitoneal doses, suspended in distilled water and one drop of polysorbate 80. The control animals received the vehicle alone. After 30 or 60 minutes, each rat was placed in an individual clear plexiglass chamber. Tap water was available ad libitum from a nipple located in a black plexiglass box adjacent to the main chamber. A circuit carrying a 0.7 milliampere AC shocking current was established between the stainless steel grid floor of the chamber and the nipple. After 20 licks of non-shocked drinking, a fixed ratio of a 2-second "shock-on" and 19 licks "shock-off" cycle began and continued for a total of 3 minutes. The number of shocks taken by each rat during a 3-minute interval was recorded and compared to a control group.

brain-specific receptors = experiment: inhibition of 3H-benzodiazepine (3H-flunitrazepam) binding to brain-specific receptors; set-up: species or system rat (Wistar strain); conditions: 1 μM test compound (activity criterion), rat cortex P2 fraction, 0° C., 30 minutes

| Structure (SMILES) | ED50 (rats [1]; Rattus norvegicus, oral, dosage effective in 50% of the rats, pentylenetetrazole 23 mg/kg i.v., read-out: ED50, resistance to convulsions induced by pentylenetetrazole) [mg/kg] | anxiolytic activity (protection from pentylenetetrazole convulsions) (rats [1]; general statement, oral or intraperitoneal, active if 50% or more of rats protected) | resistance to convulsions induced by pentylenetetrazole (in words) (rats [1]; oral) | anxiolytic activity (thirsty rat conflict test) (rats [2]; general statement, oral or intraperitoneal, active if shocks significantly higher than control (Mann-Whitney U test)) | activity in the thirsty rat conflict test (rats [2]; oral, 25 mg./kg.) | inhibition of 3H-benzodiazepine binding (brain-specific receptors) [%] | resistance to convulsions induced by pentylenetetrazole (rats [1]; intraperitoneal, 50 mg./kg., pentylenetetrazole 23 mg/kg i.v.) | activity in the thirsty rat conflict test (rats [2]; intraperitoneal, 25 mg/kg) |
| --- | --- | --- | --- | --- | --- | --- | --- | --- |
| N#Cc1ncn2c(-c3cccnc3)ccnc12 [Example 5, 4-(3-Pyridyl)imidazo[1,5-a]pyrimidine-8-carbonitrile] | 6.8 | shown to possess anxiolytic activity | effective | shown to possess anxiolytic activity | active | 19 |  |  |
| CCOC(=O)c1ncn2c(-c3cccnc3)ccnc12 [Example 15, Ethyl 4-(3-pyridyl)imidazo[1,5-a]pyrimidine-8-carboxylate] |  |  |  |  | inactive | 49 |  |  |
| N#Cc1ncn2c(-c3cccs3)ccnc12 [Example 1, 4-(2-Thienyl)imidazo[1,5-a]pyrimidine-8-carbonitrile] |  |  |  |  |  | 39 | inactive | active |
| N#Cc1ncn2c(-c3ccsc3)ccnc12 [Example 2, 4-(3-Thienyl)imidazo[1,5-a]pyrimidine-8-carbonitrile] |  |  |  |  |  | 20 |  |  |
